# From US4476120A, “Thiolic derivatives of erythromycin having therapeutic activity, and pharmaceutical compositions containing them” (Sigma Tau Indistrie Farmaceutiche Riunites, p.A, priority 1982, dated 1984)
# Assays:
# Staph. albus SS 03 = type: cell-based; conditions: Brain Heart Infusion, estolate and RV11-RV15 previously hydrolized, unit assumed
# Staph. albus SS 04 = type: cell-based; conditions: Brain Heart Infusion, estolate and RV11-RV15 previously hydrolized, unit assumed
# Staph. aureus SS 07 [1] = type: cell-based; conditions: Brain Heart Infusion, estolate and RV11-RV15 previously hydrolized, unit assumed
# Staph. aureus SS 08 = type: cell-based; conditions: Brain Heart Infusion, estolate and RV11-RV15 previously hydrolized, unit assumed
# Staph. aureus SS 09 = type: cell-based; conditions: Brain Heart Infusion, estolate and RV11-RV15 previously hydrolized, unit assumed
# Staph. aureus SS 10 = type: cell-based; conditions: Brain Heart Infusion, estolate and RV11-RV15 previously hydrolized, unit assumed
# [2] = system: Strept. haemolyticus SS 17; type: cell-based; conditions: Brain Heart Infusion, estolate and RV11-RV15 previously hydrolized, unit assumed
# [3] = system: Strept. haemolyticus SS 18; type: cell-based; conditions: Brain Heart Infusion, estolate and RV11-RV15 previously hydrolized, unit assumed
# Strept. faecalis SS 19 = type: cell-based; conditions: Brain Heart Infusion, estolate and RV11-RV15 previously hydrolized, unit assumed
# B. subtilis ATCC 6633 = type: cell-based; conditions: Brain Heart Infusion, estolate and RV11-RV15 previously hydrolized, unit assumed
# B. cereus ATCC 11778 = type: cell-based; conditions: Brain Heart Infusion, estolate and RV11-RV15 previously hydrolized, unit assumed
# B. anthranis SS 08 = type: cell-based; conditions: Brain Heart Infusion, estolate and RV11-RV15 previously hydrolized, unit assumed
# Br. melitensis SS 19 = type: cell-based; conditions: unit assumed
# Citrobacter SS 05 = type: cell-based; conditions: Brain Heart Infusion, estolate and RV11-RV15 previously hydrolized, unit assumed
# Citrobacter SS 09 = type: cell-based; conditions: Brain Heart Infusion, estolate and RV11-RV15 previously hydrolized, unit assumed
# S. infantis SS 08 = type: cell-based; conditions: Brain Heart Infusion, estolate and RV11-RV15 previously hydrolized, unit assumed
# S. heidelberg SS 18 = type: cell-based; conditions: Brain Heart Infusion, estolate and RV11-RV15 previously hydrolized, unit assumed
# E. cloacae SS 07 = type: cell-based; conditions: Brain Heart Infusion, estolate and RV11-RV15 previously hydrolized, unit assumed
# E. aerogenes SS 011 = type: cell-based; conditions: Brain Heart Infusion, estolate and RV11-RV15 previously hydrolized, unit assumed
# Ps. aeruginosa SS 10 = type: cell-based; conditions: Brain Heart Infusion, estolate and RV11-RV15 previously hydrolized, unit assumed
# E. coli SS 04 = type: cell-based; conditions: Brain Heart Infusion, estolate and RV11-RV15 previously hydrolized, unit assumed
# E. coli SS 06 = type: cell-based; conditions: Brain Heart Infusion, estolate and RV11-RV15 previously hydrolized, unit assumed
# E. coli SS 07 = type: cell-based; conditions: Brain Heart Infusion, estolate and RV11-RV15 previously hydrolized, unit assumed
# Pr. mirabilis SS 09 = type: cell-based; conditions: Brain Heart Infusion, estolate and RV11-RV15 previously hydrolized, unit assumed
# Pr. vulgaris SS 10 = type: cell-based; conditions: Brain Heart Infusion, estolate and RV11-RV15 previously hydrolized, unit assumed
# Kl. aerogenes SS 71 = type: cell-based; conditions: Brain Heart Infusion, estolate and RV11-RV15 previously hydrolized, unit assumed
# H. tubercolosis SS 03 = type: cell-based; conditions: Brain Heart Infusion, estolate and RV11-RV15 previously hydrolized, unit assumed
# Excerpt: (§1) In the following table I the MIC/ml values are indicated corresponding to the lowest concentration capable of inducing a complete inhibition of the bacterial development.
# Kl. pneumoniae SS 04 = type: cell-based; conditions: Brain Heart Infusion, estolate and RV11-RV15 previously hydrolized, unit assumed
# Excerpt: as §1
# Sr. marcescens SS 03 = type: cell-based; conditions: Brain Heart Infusion, estolate and RV11-RV15 previously hydrolized, unit assumed
# C. diphtheriae SS 19 = type: cell-based; conditions: Brain Heart Infusion, estolate and RV11-RV15 previously hydrolized, unit assumed
# D. pneumoniae SS 23 [4] = type: cell-based; conditions: Brain Heart Infusion, estolate and RV11-RV15 previously hydrolized, unit assumed
# N. gonorreae SS 27 = type: cell-based; conditions: Brain Heart Infusion, estolate and RV11-RV15 previously hydrolized, unit assumed
# N. meningitidis SS 04 = type: cell-based; conditions: Brain Heart Infusion, estolate and RV11-RV15 previously hydrolized, unit assumed
# H. influentiae SS 02 = type: cell-based; conditions: Brain Heart Infusion, estolate and RV11-RV15 previously hydrolized, unit assumed
# H. pertussis SS 03 = type: cell-based; conditions: Brain Heart Infusion, estolate and RV11-RV15 previously hydrolized, unit assumed
# C. albicans SS 04 = type: cell-based; conditions: Brain Heart Infusion, estolate and RV11-RV15 previously hydrolized, unit assumed
# Cl. tetani SS 17 = type: cell-based; conditions: Brain Heart Infusion, estolate and RV11-RV15 previously hydrolized, unit assumed
# B. anthranis SS 09 = type: cell-based; conditions: B. anthranis SS 09 (14 bis); Brain Heart Infusion; estolate and RV11-RV15 previously hydrolized; unit assumed
# Acute toxicity = type: in vivo; conditions: mouse, in vivo, po; os; mortality 10 days after treatment; mice; read-out: LD50 (reliability limits)
# Description: The acute toxicity was assessed in Swiss white mice by oral and intravenous route. The LD50 values have been calculated by the methods of Probits, starting from the mortality recorded 10 days after the treatment.
# Staph. aureus SS 07 [5] = assay: Experimental infection induced by Staph. aureus SS 07; type: in vivo, Swiss white mice; conditions: os; Staph. aureus SS 07; mg/kg of erythromycin; survival after 7 days; 10080 min
# Procedure, shortened: (§2)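 Swiss mice of 20 g infected parenterally with lethal amounts of Staph. aureus SS 07 or D. pneumoniae SS 23. Antibiotics were given at infection and again 6 and 24 h later. ED50 was derived from survival at 7 days.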
# D. pneumoniae SS 23 [6] = assay: Experimental infection induced by D. pneumoniae SS 23; type: in vivo, Swiss white mice; conditions: os; D. pneumoniae SS 23; mg/kg of erythromycin; survival after 7 days; 10080 min
# Procedure, shortened: as §2
# [7] = Mucolytic activity: obstruction of the bronchial tract after SO2 inhalation; type: in vivo, Sprague Dawley male rats; conditions: oral, 500 mg/kg; SO2, 15 days
smiles,measurement,setting,value
"CCC(=O)O[C@H]1[C@H](O[C@@H]2[C@@H](C)[C@H](O[C@H]3C[C@@](C)(OC)[C@@H](O)[C@H](C)O3)[C@@H](C)C(=O)O[C@H](CC)[C@@](C)(O)[C@H](O)[C@@H](C)C(=O)[C@H](C)C[C@@]2(C)O)O[C@H](C)C[C@@H]1N(C)C [RV11, erythromycin-monopropionate-alpha-mercaptosuccinate]",MIC,Staph. albus SS 03,0.05 µg/mL
same,MIC,Staph. albus SS 04,0.05 µg/mL
same,MIC,Staph. aureus SS 07 [1],0.05 µg/mL
same,MIC,Staph. aureus SS 08,0.025 µg/mL
same,MIC,Staph. aureus SS 09,0.1 µg/mL
same,MIC,Staph. aureus SS 10,0.025 µg/mL
same,MIC,[2],1.5 µg/mL
same,MIC,[3],1.5 µg/mL
same,MIC,Strept. faecalis SS 19,0.05 µg/mL
same,MIC,B. subtilis ATCC 6633,0.025 µg/mL
same,MIC,B. cereus ATCC 11778,0.8 µg/mL
same,MIC,B. anthranis SS 08,0.8 µg/mL
same,MIC,Br. melitensis SS 19,3 µg/mL
same,MIC,Citrobacter SS 05,> 200 µg/mL
same,MIC,Citrobacter SS 09,> 200 µg/mL
same,MIC,S. infantis SS 08,100 µg/mL
same,MIC,S. heidelberg SS 18,100 µg/mL
same,MIC,E. cloacae SS 07,> 200 µg/mL
same,MIC,E. aerogenes SS 011,100 µg/mL
same,MIC,Ps. aeruginosa SS 10,100 µg/mL
same,MIC,E. coli SS 04,50 µg/mL
same,MIC,E. coli SS 06,50 µg/mL
same,MIC,E. coli SS 07,50 µg/mL
same,MIC,Pr. mirabilis SS 09,> 200 µg/mL
same,MIC,Pr. vulgaris SS 10,> 200 µg/mL
same,MIC,Kl. aerogenes SS 71,100 µg/mL
same,MIC,H. tubercolosis SS 03,50 µg/mL
same,MIC,Kl. pneumoniae SS 04,200 µg/mL
same,MIC,Sr. marcescens SS 03,200 µg/mL
same,MIC,C. diphtheriae SS 19,0.01 µg/mL
same,MIC,D. pneumoniae SS 23 [4],0.025 µg/mL
same,MIC,N. gonorreae SS 27,0.4 µg/mL
same,MIC,N. meningitidis SS 04,1.5 µg/mL
same,MIC,H. influentiae SS 02,0.8 µg/mL
same,MIC,H. pertussis SS 03,0.4 µg/mL
same,MIC,C. albicans SS 04,200 µg/mL
same,MIC,Cl. tetani SS 17,0.2 µg/mL
same,MIC,B. anthranis SS 09,0.4 µg/mL
same,LD50 at 240 h,Acute toxicity,3000 mg/kg
same,ED50 (reliability limits),Staph. aureus SS 07 [5],2.14 (2.40-1.91) mg/kg
same,ED50 (reliability limits),D. pneumoniae SS 23 [6],100.41 (122.52-82.30) mg/kg
same,Partial obstruction (% incidence),[7],13.33%
same,"Total obstruction, compact plug (% incidence)",[7],20%
same,"Total obstruction, nodular mass (% incidence)",[7],6.66%
same,"Total obstruction, pimply mass (% incidence)",[7],6.66%
